By EC50 is commonly meant the concentration needed to bring the measured effect to its halfway point. Usually logD stands for the decadic logarithm of the distribution of all forms, ionised or not, between an organic phase and buffer at a given pH. A lower logD goes with a more hydrophilic compound.

Test system in the first data set: not listed separately
In words: Metabolic stability in human liver microsomes assessed as intrinsic clearance at 1 uM measured upto 30 mins by LC-MS/MS analysis. It counts as ADME, Microsome. To be noted: read-out: CLH. (In general: Liver microsomes are vesicles of endoplasmic reticulum, rich in cytochrome P450 enzymes.)
For `Cc1cc(F)c(O[C@H]2CC[C@@](C)(C(=O)O)CC2)cc1C(=O)N[C@@H]1[C@H]2CC[C@H](C2)[C@@H]1C(=O)NCC1(C)CCC1`, the microsomal CLint at 1 µM turned out to be 161 µL/min/mg.

As for `CC1(CNC(=O)[C@H]2[C@@H]3CC[C@@H](C3)[C@H]2NC(=O)c2ccc(F)c(O[C@H]3CC[C@@](C)(C(=O)O)CC3)c2)CCC1`, the microsomal CLint at 1 µM worked out at 6.6 µL/min/mg.

In the case of `COc1cc(C(F)(F)F)c(O[C@H]2CC[C@@](C)(C(=O)O)CC2)cc1C(=O)N[C@@H]1[C@H]2CC[C@H](C2)[C@@H]1C(=O)NCC1(C)CCC1`, the microsomal CLint at 1 µM was 20 µL/min/mg.

As for `COc1c(C)cc(O[C@H]2CC[C@@](C)(C(=O)O)CC2)cc1C(=O)N[C@@H]1[C@H]2CC[C@H](C2)[C@@H]1C(=O)NCC1(C)CCC1`, the microsomal CLint at 1 µM was 7 µL/min/mg.

For `COc1cc(F)c(O[C@H]2CC[C@@](C)(c3noc(=O)[nH]3)CC2)cc1C(=O)N[C@@H]1[C@H]2CC[C@H](C2)[C@@H]1C(=O)NCC1(C)CCC1`, the microsomal CLint at 1 µM is 87 µL/min/mg.

The target of a further data set is T1, Relaxin receptor 1 (Homo sapiens, UniProt Q9HBX9).
T1 sequence (Q9HBX9 whole entry): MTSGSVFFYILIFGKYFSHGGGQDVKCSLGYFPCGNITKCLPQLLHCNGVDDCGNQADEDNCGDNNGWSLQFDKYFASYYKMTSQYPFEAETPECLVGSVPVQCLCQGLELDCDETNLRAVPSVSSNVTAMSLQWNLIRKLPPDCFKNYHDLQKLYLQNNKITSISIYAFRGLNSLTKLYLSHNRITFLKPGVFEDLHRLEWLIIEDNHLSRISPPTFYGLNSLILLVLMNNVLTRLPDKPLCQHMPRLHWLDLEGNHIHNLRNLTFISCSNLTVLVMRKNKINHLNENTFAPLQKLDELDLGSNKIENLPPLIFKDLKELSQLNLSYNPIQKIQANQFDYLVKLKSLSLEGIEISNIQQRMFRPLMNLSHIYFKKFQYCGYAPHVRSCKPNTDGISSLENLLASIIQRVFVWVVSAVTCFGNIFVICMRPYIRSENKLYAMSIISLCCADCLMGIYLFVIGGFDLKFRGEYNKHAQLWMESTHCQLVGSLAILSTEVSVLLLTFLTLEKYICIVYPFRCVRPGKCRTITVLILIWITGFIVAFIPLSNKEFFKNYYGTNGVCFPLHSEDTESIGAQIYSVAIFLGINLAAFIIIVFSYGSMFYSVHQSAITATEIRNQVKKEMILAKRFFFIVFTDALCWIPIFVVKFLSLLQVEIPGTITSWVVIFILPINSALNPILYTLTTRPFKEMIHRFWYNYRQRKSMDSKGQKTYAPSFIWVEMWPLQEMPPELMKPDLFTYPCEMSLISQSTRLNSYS
Settings: not given
In turn, `Cc1cc(F)c(O[C@H]2CC[C@@](C)(C(=O)O)CC2)cc1C(=O)N[C@@H]1[C@H]2CC[C@H](C2)[C@@H]1C(=O)NCC1(C)CCC1` showed an EC50 of 2 µM.

`CC1(CNC(=O)[C@H]2[C@@H]3CC[C@@H](C3)[C@H]2NC(=O)c2ccc(F)c(O[C@H]3CC[C@@](C)(C(=O)O)CC3)c2)CCC1` showed a half-maximal effective concentration (EC50) of 0.316 µM.

In turn, `COc1cc(C(F)(F)F)c(O[C@H]2CC[C@@](C)(C(=O)O)CC2)cc1C(=O)N[C@@H]1[C@H]2CC[C@H](C2)[C@@H]1C(=O)NCC1(C)CCC1` gave an EC50 of 0.0316 µM.

With `COc1cc(F)c(O[C@H]2CC[C@@](C)(c3noc(=O)[nH]3)CC2)cc1C(=O)N[C@@H]1[C@H]2CC[C@H](C2)[C@@H]1C(=O)NCC1(C)CCC1`, the midpoint of the response, the EC50, lay at 0.0794 µM.

Test system in a further data set: not listed separately
In words: Metabolic stability in human hepatocytes assessed as intrinsic clearance measured per 10^6 viable cells/ml at 1 uM measured upto 120 mins by LC-MS/MS analysis. The conditions noted are these: read-out: CLH. It counts as ADME, cell-based, Hepatocyte.
In the case of `Cc1cc(F)c(O[C@H]2CC[C@@](C)(C(=O)O)CC2)cc1C(=O)N[C@@H]1[C@H]2CC[C@H](C2)[C@@H]1C(=O)NCC1(C)CCC1`, the hepatocyte CLint at 1 µM worked out at 15 µL/min/1e6 cells.

For the molecule `CC1(CNC(=O)[C@H]2[C@@H]3CC[C@@H](C3)[C@H]2NC(=O)c2ccc(F)c(O[C@H]3CC[C@@](C)(C(=O)O)CC3)c2)CCC1`, the hepatocyte CLint at 1 µM was 8.4 µL/min/1e6 cells.

Consider `COc1cc(C(F)(F)F)c(O[C@H]2CC[C@@](C)(C(=O)O)CC2)cc1C(=O)N[C@@H]1[C@H]2CC[C@H](C2)[C@@H]1C(=O)NCC1(C)CCC1`, for which the hepatocyte CLint at 1 µM stood at 3.9 µL/min/1e6 cells.

`COc1c(C)cc(O[C@H]2CC[C@@](C)(C(=O)O)CC2)cc1C(=O)N[C@@H]1[C@H]2CC[C@H](C2)[C@@H]1C(=O)NCC1(C)CCC1`: the hepatocyte CLint at 1 µM turned out to be 5.6 µL/min/1e6 cells.

For `COc1cc(F)c(O[C@H]2CC[C@@](C)(c3noc(=O)[nH]3)CC2)cc1C(=O)N[C@@H]1[C@H]2CC[C@H](C2)[C@@H]1C(=O)NCC1(C)CCC1`, the hepatocyte CLint at 1 µM was found to be 12 µL/min/1e6 cells.

Test system in the next data set: not listed separately
In words: Octanol/water partition coefficient, logD of the compound at pH 7.4 by shake flask method. It counts as physicochemical.
Settings: not given
Molecule `Cc1cc(F)c(O[C@H]2CC[C@@](C)(C(=O)O)CC2)cc1C(=O)N[C@@H]1[C@H]2CC[C@H](C2)[C@@H]1C(=O)NCC1(C)CCC1` yielded a pH-dependent lipophilicity (logD) of 2.83.

In the case of `CC1(CNC(=O)[C@H]2[C@@H]3CC[C@@H](C3)[C@H]2NC(=O)c2ccc(F)c(O[C@H]3CC[C@@](C)(C(=O)O)CC3)c2)CCC1`, the logD worked out at 3. This logD and that of the molecule before are within 0.2 log units of each other.

`COc1cc(C(F)(F)F)c(O[C@H]2CC[C@@](C)(C(=O)O)CC2)cc1C(=O)N[C@@H]1[C@H]2CC[C@H](C2)[C@@H]1C(=O)NCC1(C)CCC1`: the pH-dependent lipophilicity (logD) amounted to 4.1.

For the molecule `COc1c(C)cc(O[C@H]2CC[C@@](C)(C(=O)O)CC2)cc1C(=O)N[C@@H]1[C@H]2CC[C@H](C2)[C@@H]1C(=O)NCC1(C)CCC1`, the logD is 2.9.

In turn, `COc1cc(F)c(O[C@H]2CC[C@@](C)(c3noc(=O)[nH]3)CC2)cc1C(=O)N[C@@H]1[C@H]2CC[C@H](C2)[C@@H]1C(=O)NCC1(C)CCC1` yielded a logD of 3.8.

Test system in the next data set: not listed separately
As to the kind of experiment: Metabolic stability in human liver microsomes assessed as unbound intrinsic clearance at 1 uM measured upto 30 mins by LC-MS/MS analysis. It counts as ADME, Microsome. To be noted: 0.5 h.
On to `Cc1cc(F)c(O[C@H]2CC[C@@](C)(C(=O)O)CC2)cc1C(=O)N[C@@H]1[C@H]2CC[C@H](C2)[C@@H]1C(=O)NCC1(C)CCC1`, for which the CL free turned out to be 23 µL/min/mg.

For the molecule `CC1(CNC(=O)[C@H]2[C@@H]3CC[C@@H](C3)[C@H]2NC(=O)c2ccc(F)c(O[C@H]3CC[C@@](C)(C(=O)O)CC3)c2)CCC1`, the CL free amounted to 8.8 µL/min/mg.

Consider `COc1cc(C(F)(F)F)c(O[C@H]2CC[C@@](C)(C(=O)O)CC2)cc1C(=O)N[C@@H]1[C@H]2CC[C@H](C2)[C@@H]1C(=O)NCC1(C)CCC1`, for which the CL free stood at 44 µL/min/mg.

Take `COc1c(C)cc(O[C@H]2CC[C@@](C)(C(=O)O)CC2)cc1C(=O)N[C@@H]1[C@H]2CC[C@H](C2)[C@@H]1C(=O)NCC1(C)CCC1`: the CL free is 10 µL/min/mg.

As for `COc1cc(F)c(O[C@H]2CC[C@@](C)(c3noc(=O)[nH]3)CC2)cc1C(=O)N[C@@H]1[C@H]2CC[C@H](C2)[C@@H]1C(=O)NCC1(C)CCC1`, the CL free is 212 µL/min/mg.

Test system in the next data set: not listed separately
In words: Metabolic stability in human hepatocytes assessed as unbound intrinsic clearance measured per 10^6 viable cells/ml at 1 uM measured upto 120 mins by LC-MS/MS analysis. It counts as ADME, cell-based, Hepatocyte. To be noted: 2 h.
Consider `Cc1cc(F)c(O[C@H]2CC[C@@](C)(C(=O)O)CC2)cc1C(=O)N[C@@H]1[C@H]2CC[C@H](C2)[C@@H]1C(=O)NCC1(C)CCC1`, for which the CL free stood at 22 µL/min.

For the molecule `CC1(CNC(=O)[C@H]2[C@@H]3CC[C@@H](C3)[C@H]2NC(=O)c2ccc(F)c(O[C@H]3CC[C@@](C)(C(=O)O)CC3)c2)CCC1`, the CL free turned out to be 16 µL/min.

On to `COc1cc(C(F)(F)F)c(O[C@H]2CC[C@@](C)(C(=O)O)CC2)cc1C(=O)N[C@@H]1[C@H]2CC[C@H](C2)[C@@H]1C(=O)NCC1(C)CCC1`, for which the CL free turned out to be 93 µL/min.

In the case of `COc1c(C)cc(O[C@H]2CC[C@@](C)(C(=O)O)CC2)cc1C(=O)N[C@@H]1[C@H]2CC[C@H](C2)[C@@H]1C(=O)NCC1(C)CCC1`, the CL free stood at 8.9 µL/min.

Source of the values: ChEMBL document CHEMBL5518236, “Discovery of Clinical Candidate AZD5462, a Selective Oral Allosteric RXFP1 Agonist for Treatment of Heart Failure” (J Med Chem, 2024).
